Measurements reported in ChEMBL document CHEMBL3885861, “Open TG-GATES”.

Organism: Rattus norvegicus
Test: Open TG-GATES - Regimen: Daily Repeat
Assay type: toxicity, organism-based, Sprague-Dawley
Parameters: regimen Daily Repeat, gender Male, age 6 weeks
Conditions: in vivo, po, 75 mg/kg, route gavage, dose level Low; for APTT / Bas / Eos / Fbg / Hb / Ht / Lym / MCH / MCHC / MCV / Mono / Neu / PT / Plat / RBC / Ret / WBC: tissue Blood; for KIDNEY_L / KIDNEY_R / KIDNEY_TOTAL: tissue Kidney; for LIVER: tissue Liver; for A/G / ALP / ALT / AST / BUN / CRE / Ca / Cl / DBIL / GLC / IP / K / LDH / Na / PL / RALB / TBIL / TC / TG / TP / gamma-GTP: tissue Plasma

For CN(C/C=C/C#CC(C)(C)C)Cc1cccc2ccccc12 [TERBINAFINE], the TERMINAL_BW (72 h, time 3 day) was 243.4 g, the APTT (72 h, time 3 day) was 18.6 s and the Bas (72 h, time 3 day) was 0.8%. The Eos (72 h, time 3 day) was 0.8%, the Fbg (72 h, time 3 day) was 233.4 mg/dL and the Hb (72 h, time 3 day) was 13.4 g/dL. It also gave a Ht (72 h, time 3 day) of 39.5%, a Lym (72 h, time 3 day) of 80.4% and an MCH (72 h, time 3 day) of 21.7 pg. For the same molecule, the MCHC (72 h, time 3 day) was 33.7%, the MCV (72 h, time 3 day) was 64.3 fL and the Mono (72 h, time 3 day) was 2.8%. For the same molecule, the Neu (72 h, time 3 day) was 15.4%, the PT (72 h, time 3 day) was 11.5 s and the Plat (72 h, time 3 day) was 121.6 x10_4/uL. The RBC (72 h, time 3 day) was 615.4 x10_4/ul, the Ret (72 h, time 3 day) was 6.2% and the WBC (72 h, time 3 day) was 111.7 x10_2/uL. It also gave a KIDNEY_L (72 h, time 3 day) of 1.1 g, a KIDNEY_R (72 h, time 3 day) of 1.1 g and a KIDNEY_TOTAL (72 h, time 3 day) of 2.1 g. For the same molecule, the LIVER (72 h, time 3 day) was 12.1 g, the A/G (72 h, time 3 day) was 1.7 and the ALP (72 h, time 3 day) was 854 IU/L. The ALT (72 h, time 3 day) was 35.2 IU/L, the AST (72 h, time 3 day) was 67.2 IU/L and the BUN (72 h, time 3 day) was 14.2 mg/dL. It also gave a CRE (72 h, time 3 day) of 0.4 mg/dL, a Ca (72 h, time 3 day) of 10.8 mg/dL and a Cl (72 h, time 3 day) of 103.6 meq/L. The DBIL (72 h, time 3 day) was 0.1 mg/dL, the GLC (72 h, time 3 day) was 190.8 mg/dL and the IP (72 h, time 3 day) was 7.3 mg/dL. For the same molecule, the K (72 h, time 3 day) was 4.2 meq/L, the LDH (72 h, time 3 day) was 214.6 IU/L and the Na (72 h, time 3 day) was 141.2 meq/L. The PL (72 h, time 3 day) was 156 mg/dL, the RALB (72 h, time 3 day) was 3.6 g/dL and the TBIL (72 h, time 3 day) was 0.2 mg/dL. For the same molecule, the TC (72 h, time 3 day) was 80.6 mg/dL, the TG (72 h, time 3 day) was 113.4 mg/dL and the TP (72 h, time 3 day) was 5.7 g/dL. It also gave a gamma-GTP (72 h, time 3 day) of 2 IU/L, a TERMINAL_BW ([…], time 7 day) of 274.5 g and a TERMINAL_BW ([…], time 14 day) of 333.7 g. The TERMINAL_BW ([…], time 28 day) was 399 g, the APTT ([…], time 7 day) was 19.2 s and the Bas ([…], time 7 day) was 1%. It also gave an Eos ([…], time 7 day) of 0.6%, a Fbg ([…], time 7 day) of 226 mg/dL and a Hb ([…], time 7 day) of 13.9 g/dL. It also gave a Ht ([…], time 7 day) of 40.6%, a Lym ([…], time 7 day) of 83% and an MCH ([…], time 7 day) of 21.7 pg. For the same molecule, the MCHC ([…], time 7 day) was 34.3%, the MCV ([…], time 7 day) was 63.5 fL and the Mono ([…], time 7 day) was 2.4%. It also gave a Neu ([…], time 7 day) of 13.2%, a PT ([…], time 7 day) of 11.9 s and a Plat ([…], time 7 day) of 130.9 x10_4/uL. It also gave an RBC ([…], time 7 day) of 640.8 x10_4/ul, a Ret ([…], time 7 day) of 5.2% and a WBC ([…], time 7 day) of 112.5 x10_2/uL. The APTT ([…], time 14 day) was 20.1 s, the Bas ([…], time 14 day) was 1% and the Eos ([…], time 14 day) was 1%. For the same molecule, the Fbg ([…], time 14 day) was 219.4 mg/dL, the Hb ([…], time 14 day) was 14.6 g/dL and the Ht ([…], time 14 day) was 42.7%. The Lym ([…], time 14 day) was 79.8%, the MCH ([…], time 14 day) was 20.6 pg and the MCHC ([…], time 14 day) was 34%. It also gave an MCV ([…], time 14 day) of 60.4 fL, a Mono ([…], time 14 day) of 2.6% and a Neu ([…], time 14 day) of 15.4%. It also gave a PT ([…], time 14 day) of 11.3 s, a Plat ([…], time 14 day) of 129 x10_4/uL and an RBC ([…], time 14 day) of 707.4 x10_4/ul. For the same molecule, the Ret ([…], time 14 day) was 4%, the WBC ([…], time 14 day) was 118.9 x10_2/uL and the APTT ([…], time 28 day) was 21.8 s. For the same molecule, the Bas ([…], time 28 day) was 0.8%, the Eos ([…], time 28 day) was 1% and the Fbg ([…], time 28 day) was 210.8 mg/dL. It also gave a Hb ([…], time 28 day) of 15 g/dL, a Ht ([…], time 28 day) of 42.9% and a Lym ([…], time 28 day) of 80.6%. For the same molecule, the MCH ([…], time 28 day) was 19.7 pg, the MCHC ([…], time 28 day) was 34.8% and the MCV ([…], time 28 day) was 56.7 fL. For the same molecule, the Mono ([…], time 28 day) was 2.2%, the Neu ([…], time 28 day) was 15% and the PT ([…], time 28 day) was 12.2 s. The Plat ([…], time 28 day) was 114.8 x10_4/uL, the RBC ([…], time 28 day) was 758.2 x10_4/ul and the Ret ([…], time 28 day) was 2.7%. The WBC ([…], time 28 day) was 135.9 x10_2/uL, the KIDNEY_L ([…], time 7 day) was 1.2 g and the KIDNEY_R ([…], time 7 day) was 1.2 g. It also gave a KIDNEY_TOTAL ([…], time 7 day) of 2.4 g, a KIDNEY_L ([…], time 14 day) of 1.3 g and a KIDNEY_R ([…], time 14 day) of 1.3 g. The KIDNEY_TOTAL ([…], time 14 day) was 2.5 g, the KIDNEY_L ([…], time 28 day) was 1.5 g and the KIDNEY_R ([…], time 28 day) was 1.6 g. The KIDNEY_TOTAL ([…], time 28 day) was 3.1 g, the LIVER ([…], time 7 day) was 13.1 g and the LIVER ([…], time 14 day) was 15.1 g. For the same molecule, the LIVER ([…], time 28 day) was 17.5 g, the A/G ([…], time 7 day) was 1.6 and the ALP ([…], time 7 day) was 944.6 IU/L. For the same molecule, the ALT ([…], time 7 day) was 36.6 IU/L, the AST ([…], time 7 day) was 72.8 IU/L and the BUN ([…], time 7 day) was 16.2 mg/dL. The CRE ([…], time 7 day) was 0.4 mg/dL, the Ca ([…], time 7 day) was 10.6 mg/dL and the Cl ([…], time 7 day) was 103.8 meq/L. It also gave a DBIL ([…], time 7 day) of 0.1 mg/dL, a GLC ([…], time 7 day) of 188.2 mg/dL and an IP ([…], time 7 day) of 7.1 mg/dL. It also gave a K ([…], time 7 day) of 4.4 meq/L, an LDH ([…], time 7 day) of 217.6 IU/L and a Na ([…], time 7 day) of 142 meq/L. It also gave a PL ([…], time 7 day) of 152.8 mg/dL, an RALB ([…], time 7 day) of 3.6 g/dL and a TBIL ([…], time 7 day) of 0.2 mg/dL. It also gave a TC ([…], time 7 day) of 76.2 mg/dL, a TG ([…], time 7 day) of 112.8 mg/dL and a TP ([…], time 7 day) of 5.8 g/dL. For the same molecule, the gamma-GTP ([…], time 7 day) was 1 IU/L, the A/G ([…], time 14 day) was 1.5 and the ALP ([…], time 14 day) was 875.8 IU/L. For the same molecule, the ALT ([…], time 14 day) was 36.8 IU/L, the AST ([…], time 14 day) was 71.4 IU/L and the BUN ([…], time 14 day) was 17.6 mg/dL. For the same molecule, the CRE ([…], time 14 day) was 0.4 mg/dL, the Ca ([…], time 14 day) was 10.8 mg/dL and the Cl ([…], time 14 day) was 103.8 meq/L. The DBIL ([…], time 14 day) was 0.1 mg/dL, the GLC ([…], time 14 day) was 206.6 mg/dL and the IP ([…], time 14 day) was 7.2 mg/dL. It also gave a K ([…], time 14 day) of 3.8 meq/L, an LDH ([…], time 14 day) of 168.2 IU/L and a Na ([…], time 14 day) of 142.4 meq/L. The PL ([…], time 14 day) was 140.4 mg/dL, the RALB ([…], time 14 day) was 3.5 g/dL and the TBIL ([…], time 14 day) was 0.2 mg/dL. It also gave a TC ([…], time 14 day) of 65.4 mg/dL, a TG ([…], time 14 day) of 123 mg/dL and a TP ([…], time 14 day) of 5.9 g/dL. The gamma-GTP ([…], time 14 day) was 0.8 IU/L, the A/G ([…], time 28 day) was 1.3 and the ALP ([…], time 28 day) was 602 IU/L. The ALT ([…], time 28 day) was 41.4 IU/L, the AST ([…], time 28 day) was 76.2 IU/L and the BUN ([…], time 28 day) was 17.2 mg/dL. For the same molecule, the CRE ([…], time 28 day) was 0.5 mg/dL, the Ca ([…], time 28 day) was 10.3 mg/dL and the Cl ([…], time 28 day) was 104.4 meq/L. For the same molecule, the DBIL ([…], time 28 day) was 0.086 mg/dL, the GLC ([…], time 28 day) was 223.4 mg/dL and the IP ([…], time 28 day) was 7.2 mg/dL. The K ([…], time 28 day) was 4.1 meq/L, the LDH ([…], time 28 day) was 230.6 IU/L and the Na ([…], time 28 day) was 141 meq/L. For the same molecule, the PL ([…], time 28 day) was 127.2 mg/dL, the RALB ([…], time 28 day) was 3.4 g/dL and the TBIL ([…], time 28 day) was 0.2 mg/dL. The TC ([…], time 28 day) was 64.8 mg/dL, the TG ([…], time 28 day) was 87.4 mg/dL and the TP ([…], time 28 day) was 6.1 g/dL. For the same molecule, the gamma-GTP ([…], time 28 day) was 1.2 IU/L.
